What is called half-life is how long it takes for the measured level to halve. A lower half-life goes with rapid decline. One may read the Kp as tissue or fluid exposure divided by exposure in the circulation.

Series [1] has as its system Caco-2. Put plainly: Bidirectional Caco-2 permeability / P-gp efflux assay. It is filed as in vitro ADME. The note with it: human, Caco-2. Here is the method:
(§1) Permeability of the compounds was evaluated in the bidirectional Caco-2 assay including identification of P-glycoprotein substrate (Pgp-mediated transport). Verapamil was used as a p-gp inhibitor. The apparent permeability (Papp) was calculated using the following equation:
(§2) Papp=VA/Area×Time×[drug]acc/[drug]initial,d
(§3) Permeability of the compounds was evaluated in the bidirectional Caco-2 assay as described in Example 11 (Table 15).
Background: Caco-2 cells form a polarised layer with tight junctions and transporters.

In series [2] the test system is P-gp. The description is as above. It is filed as in vitro ADME. The note with it: human. Here is the method:
as §1, §2, §3

Series [3] relates to GBM8. Put plainly: AlamarBlue cell viability, GBM8 patient-derived cell line. The note with it: 72 h, read-out: IC50, 72 h. It is filed as cell-based. The procedure:
(§4) The effect of selected compounds on glioma cells viability was determined. The cells were plated at 2000 cells/well in 96 well plates. The day after, cells were treated with various concentrations of temozolomide or VMY-TP analogs.
A general note: Resazurin is reduced to fluorescent resorufin, in cell work by metabolically active cells.

Series [4] concerns T98G cells. Put plainly: Cell Titer Glo viability of T98G cells with or without O6-BG pretreatment. It is filed as cell-based. The procedure:
T98G cells, which express MGMT, were treated with TMZ or test compounds with or without 3, 6, or 24 hours of pretreatment with 100 μM of O^6-benzylguanine (O^6-BG; a pseudo-substrate of MGMT that quenches the cellular store of enzyme). T98G cell lysates were probed with anti-MGMT antibody and then with anti-a tubulin (FIG. 4). In a separate experiment, TMZ or test compounds were added to T98G cells with or without 5-6 hours of pretreatment with 100 μM O^6-BG. Cell viability was measured using the Cell Titer Glo assay after 3 days of incubation and IC50 values were determined (Table 3).

Series [5] is described as follows: Aqueous chemical stability (HPLC-MS). The series is classed as physicochemical. The procedure: Detection of products of non-enzymatic cleavage (AIC-TMZ, AIC-TP3, AIC-TP5, and AIC-TP9) was performed (Table 4; FIGS. 5A-5D).
The subject of series [6] is U87. Put plainly: cells. As to conditions: read-out: IC50, 72 h. Here is the method:
as §4
(§5) Activity of TP-RGD was assessed in glioma cell cultures, as described in Example 11.

Series [7] concerns U251. Kind of series: cells. The note with it: read-out: IC50, 72 h. Here is the method: as §4, §5
For series [8], the system named is T98G. Put plainly: cells. Here is the method: as §4, §5
The nature of series [9]: Metabolic stability in mouse liver microsomes. It is filed as in vitro ADME. The procedure: Metabolic stability of the compounds was also determined in mouse liver microsomes at five time points over 60 minutes, using HPLC-MS. Liver microsomes, as vesicles of the hepatocyte endoplasmic reticulum, contain membrane phase I enzymes namely CYPs, flavine-containing monooxygenases (FMO), esterases, amidases, and epoxide hydrolases, and also the phase II enzymes such as UGTs. For the catalytic activity of both phase I and II enzymes, addition of exogenous cofactors such as NADPH for CYPs and FMO, and UDPGA/alamethicin for UGTs is necessary.
A general note: Liver microsomes are a subcellular fraction often used to study metabolism.

Series [10] in a line: BBB permeability, cassette intravenous dosing. It is filed as in vivo, male CD-1 mice. The note with it: cassette IV 5 mg/kg; for concentration at 5 min: 10% DMSO in PBS. Here is the method:
BBB permeability of the compounds was tested in male CD-1@IGS mice using cassette intravenous dosing (Table 7 and FIGS. 6A and 6B). There were three animals in each group, given a dose of 5 mg/kg formulated in 10% DMSO in PBS (v/v) for 5 minutes. The endpoint was quantifying the parent compound using LC-MS/MS. Plasma samples (50 μl) were immediately mixed with 25 μl of H3PO4 (8.5%). Then 225 μl of internal standard (IS; 400 ng/ml meldonium in methanol) was added. After mixing by pipetting and centrifuging for 4 min at 6000 rpm, 2 μl of each supernatant was injected into LC-MS/MS system. Brain samples (100 mg±1 mg) were immediately mixed with 100 μl H3PO4 (25%) and zirconium oxide beads (115 mg±5 mg). Then 400 μl of IS solution was added and samples were disperse using a bullet blender homogenizer for 30 seconds at speed 8. The samples were centrifuged for 4 min at 14,000 rpm and 2 μl of each supernatant was injected into LC-MS/MS system.

In series [11] the test system is P-glycoprotein (P-gp). Kind of series: Bidirectional Caco-2 permeability / P-gp efflux assay. It is filed as in vitro ADME. The note with it: human; Caco-2 permeability; P-gp efflux ratio, Table 15. The procedure: as §1, §2, §3
Series [12] deals with U251. As to conditions: read-out: IC50 U251 cell proliferation (BrdU ELISA); 72 hours of treatment.
Procedure: U87 cells were seeded at the density of 2,000 cells/well in 96-well plates and incubated overnight. The day after, cells were treated with various concentrations of Temozolomide or analogs for 72 hours. The BrdU ELISA proliferation assay was performed according to the manufacturer's instructions (Roche, #11647229001). Briefly, 20 μl of diluted BrdU labelling reagent was added to each well, to a final concentration of 10 μM BrdU per well. The cells were then incubated at 37° C. for 24 hours. Following this incubation, the labeling medium was aspirated from each well and 200 μl of Roche FixDenat fixing buffer was added. The plates were then incubated at 25° C. for 30 minutes. The fixing solution was removed, and 100 μl of Anti-BrdU-POD antibody was added to each well and incubated again at 25° C. for 90 minutes. Wells were rinsed three times with 200 μl of PBS, then 100 μl of Roche Substrate solution was added to each well. Following a 25 minute incubation at room temperature, the absorbance of each plate was read at 370 nm (reference wavelength: approx. 492 nm) on a Spectramax® i3x microplate reader.
The effect on U251 cell proliferation after 72 hours of treatment was also assessed using the BrdU ELISA cell proliferation assay as described in Example 11.
Series [13] relates to A172. Kind of series: cells. As to conditions: read-out: IC50, 72 h; A172, MGMT −, Table 14. The procedure: as §4, §5
The conditions of series [14]: for % decomp.: AIC formation, pH>7.4, 60° C.; for % SM: phosphate buffer pH>7.4, 60° C. The procedure:
2 mg of TP-RGD was dissolved in 0.8 mL of phosphate buffer at pH>7.4. […] Then the reaction temperature was increased to 60° C. and incubated for 4 h. During the period of incubation, the reaction was monitored for every 30 min by LC-MS. Measure the AIC formation (% decomp) over the time.

Read-outs that look alike come from different tables or passages of the source. Where only a bound is given, the exact number is not on record here.

As to `C[C@H]1O[C@@H](O[C@H]2[C@@H](O)C[C@H](O[C@H]3[C@@H](O)C[C@H](O[C@H]4CC[C@@]5(C)[C@H](CC[C@@H]6[C@@H]5C[C@@H](O)[C@]5(C)[C@@H](C7=CC(=O)OC7)CC[C@]65O)C4)O[C@@H]3C)O[C@@H]2C)C[C@H](O)[C@@H]1O` [Digoxin], in series [1], the “Efflux Ratio BA/AB p-gp Inhibitor (+)” value is 1.0, the “Papp (AB) p-gp Inhibitor (+)” value was 5.9 10^−6 cm/s and the “Papp (BA) p-gp Inhibitor (+)” value is given as 6.1 10^−6 cm/s. In series [2] (Caco-2), this molecule gave a Papp A→B of 1.2 ×10⁻⁶ cm/s and a Papp B→A of 15.8 ×10⁻⁶ cm/s. In addition, the efflux ratio in [2] (Caco-2, Efflux Ratio BA/AB p-gp Inhibitor (−)) came out at 13.6.
In the case of `Cn1nnc2c(C(=O)NC3CCCCC3)ncn2c1=O` [TP5, N-cyclohexyl-3-methyl-4-oxo-3,4-dihydroimidazo[5,1-d][1,2,3,5]tetrazine-8-carboxamide], the efflux ratio in [2] (Caco-2, without verapamil, read-out: Efflux Ratio BA/AB p-gp Inhibitor (−)) worked out at 0.9. Besides, the Papp A→B in [2] (Caco-2, without verapamil, read-out: Papp (AB) p-gp Inhibitor (−)) is 26.6 ×10⁻⁶ cm/s. Moreover, the Papp B→A in [2] (Caco-2, without verapamil, read-out: Papp (BA) p-gp Inhibitor (−)) was determined as 24.3 ×10⁻⁶ cm/s. For the same molecule, the IC50 stood at 28 µM in series [3]; 168 µM in [4] (Homo sapiens, read-out: IC50 With O^6-BG pretreatment); 410 µM in series [4] (Homo sapiens, read-out: IC50 Without O^6-BG pretreatment); 168 µM in series [6] (Homo sapiens, U-87 MG, 72 h); 139 µM in [7] (Homo sapiens, U-251, 72 h); 581 µM in series [8] (Homo sapiens, 72 h, read-out: IC50, 72 h). Moreover, the half-life at 1 μM in series [5] (0.1 M phosphate buffer pH 7.0) was greater than 120 min; in [5] (0.1 M phosphate buffer pH 8.0), 40 min; in [5] (PBS pH 7.4), 69 min. Moreover, the “Clearance Classification (Low <8.6; High >48)” value in series [9] was “Moderate”. Besides, the microsomal CLint in [9] (mouse, liver microsomes, read-out: Intrinsic clearance (Clint)) came out at 25 µL/min/mg. Further, the “% remaining (1 h) With co-factors” value in series [9] (with co-factors) is reported as 49%. Besides, in [9] (without co-factors), the “% remaining (1 h) Without co-factors” value stood at 94%. For the same molecule, in [10] (5 min), the “% Brain” value stood at 25%. Besides, in series [10] (5 min), the “% Plasma” value was 75%. The concentration at 5 min turned out to be 3050 ng/g in series [10] (male, CD-1, mouse, brain, read-out: Brain Conc.) and 3120 ng/mL in series [10] (male, CD-1, mouse, plasma, read-out: Plasma Conc). In [10] (male, CD-1, mouse, brain/plasma), this molecule came in with a concentration ratio (Kp) at 5 min of 0.99.
On to `Cn1nnc2c(C(=O)NCCCC[C@@H]3NC(=O)[C@@H](Cc4ccc(O)cc4)NC(=O)[C@H](CC(=O)O)NC(=O)CNC(=O)[C@H](CCCNC(=N)N)NC3=O)ncn2c1=O` [TP-RGD], for which the efflux ratio in series [11] stood at 0.57. For the same molecule, the IC50 in series [12] was 70.2 µM; in [6] (U87MG, MGMT −, Table 14), greater than 100 µM; in series [13] it was 383 nM; in [7] (U251, MGMT −, Table 14), 0.306 µM; in series [8] (read-out: IC50, 72 h, MGMT +++, Table 14), 0.254 µM. Moreover, the “% decomp.” value came out at 0% in [14] (0.5 h); 18.2% in [14] (1 h); 33.9% in series [14] (1.5 h); 53.5% in series [14] (2 h); 56.8% in series [14] (2.5 h); 61.6% in [14] (3 h). The “% decomp.” value in series [14] (4 h) and in series [14] (4.5 h) was 94.7% each time. Besides, the “% SM” value was 81.8% in series [14] (1 h); 65.5% in series [14] (1.5 h); 45.9% in [14] (2 h); 39.3% in series [14] (2.5 h); 27.4% in series [14] (3 h); 2.3% in series [14] (4 h). Further, in [14] (4.5 h), the “% SM” value is 2.3%. For the same molecule, the “product formation (hydrolysis)” value in series [14] (phosphate buffer pH>7.4, room temperature) is reported as “no product formation”.
Regarding `O[C@H]([C@H](O)[C@@H]1CO1)[C@H]1CO1` [VAL-083, reference compound], the IC50 in [4] (5-6 h pretreatment with 100 μM O6-BG, 3 days, read-out: IC50 With O^6-BG pretreatment) stood at 71 µM; in [4] (3 days, read-out: IC50 Without O^6-BG pretreatment) it was 108 µM.
Regarding `CC[C@]1(O)C[C@@H]2CN(CCc3c([nH]c4ccccc34)[C@@](C(=O)OC)(c3cc4c(cc3OC)N(C)[C@H]3[C@@](O)(C(=O)OC)[C@H](OC(C)=O)[C@]5(CC)C=CCN6CC[C@]43[C@@H]65)C2)C1` [Vinblastine], in [2] (Caco-2, Efflux Ratio), the efflux ratio is 21.7.

The values are drawn from patent US20230303577A1, “TEMOZOLOMIDE ANALOGS AND METHODS OF USE” (St. John's Cancer Institute, priority 2020, published 2023).
